Test results: the supplement of paper PMC10307832

Legend:
Assay in all cases: relative viability (nuclei count vs DMSO), 5 days (fraction); higher = more cells survive
XMD14-99 + Navitoclax = compound: CN1CCN(CC1)C2=CC(=C(C=C2)NC3=NC(=C(S3)C(=O)C4=C(C=CC=C4Cl)Cl)N)OC [XMD14-99] + CC1(C)CCC(c2ccc(Cl)cc2)=C(CN2CCN(c3ccc(C(=O)NS(=O)(=O)c4ccc(N[C@H](CCN5CCOCC5)CSc5ccccc5)c(S(=O)(=O)C(F)(F)F)c4)cc3)CC2)C1 [Navitoclax] (partner 0.5 µM)
Procedure, shortened: (§1)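 Relative viability is defined as nuclei in treated wells over nuclei in vehicle wells. Duplicate plates were run and medians reported. Lung cancer cell lines in 1536-well plates were dosed by pin tool one day after seeding, with one drug or with a fixed anchor-drug dose plus five library-drug doses (not always all listed) in √10 steps, and nuclei were counted after 5 days.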

AZD1208 + Tozasertib = compound: N[C@@H]1CCCN(c2c(/C=C3\SC(=O)NC3=O)cccc2-c2ccccc2)C1 [AZD1208] + Cc1cc(Nc2cc(N3CCN(C)CC3)nc(Sc3ccc(NC(=O)C4CC4)cc3)n2)n[nH]1 [Tozasertib] (partner 0.1 µM)
Procedure, shortened: as §1

AZD1208 + Pemetrexed = compound: N[C@@H]1CCCN(c2c(/C=C3\SC(=O)NC3=O)cccc2-c2ccccc2)C1 [AZD1208] + Nc1nc2[nH]cc(CCc3ccc(C(=O)N[C@@H](CCC(=O)O)C(=O)O)cc3)c2c(=O)[nH]1 [Pemetrexed] (partner 0.2 µM)
Procedure, shortened: as §1

XMD14-99 + Dasatinib = compound: CN1CCN(CC1)C2=CC(=C(C=C2)NC3=NC(=C(S3)C(=O)C4=C(C=CC=C4Cl)Cl)N)OC [XMD14-99] + Cc1nc(Nc2ncc(C(=O)Nc3c(C)cccc3Cl)s2)cc(N2CCN(CCO)CC2)n1 [Dasatinib] (partner 0.075 µM)
Procedure, shortened: as §1

Cell Line | relative viability (XMD14-99 + Navitoclax; first compound 0.08 µM) | relative viability (XMD14-99 + Navitoclax; first compound 0.8 µM) | relative viability (XMD14-99 + Navitoclax; first compound 2.53 µM) | relative viability (XMD14-99 + Navitoclax; first compound 8 µM) | relative viability (AZD1208 + Tozasertib; first compound 0.08 µM) | relative viability (AZD1208 + Tozasertib; first compound 0.253 µM) | relative viability (AZD1208 + Tozasertib; first compound 0.8 µM) | relative viability (AZD1208 + Tozasertib; first compound 2.53 µM) | relative viability (AZD1208 + Tozasertib; first compound 8 µM) | relative viability (AZD1208 + Pemetrexed; first compound 0.08 µM) | relative viability (AZD1208 + Pemetrexed; first compound 0.253 µM) | relative viability (AZD1208 + Pemetrexed; first compound 0.8 µM) | relative viability (AZD1208 + Pemetrexed; first compound 2.53 µM) | relative viability (AZD1208 + Pemetrexed; first compound 8 µM) | relative viability (XMD14-99 + Dasatinib; first compound 0.08 µM) | relative viability (XMD14-99 + Dasatinib; first compound 0.8 µM) | relative viability (XMD14-99 + Dasatinib; first compound 2.53 µM) | relative viability (XMD14-99 + Dasatinib; first compound 8 µM)
HCC-44 | 1.07 | 0.888 | 0.935 | 0.9 | 0.876 | 1.04 | 0.877 | 0.896 | 0.866 | 0.636 | 0.592 | 0.62 | 0.688 | 0.639 |  |  |  | 
HCC-78 | 0.657 | 0.729 | 0.794 | 0.622 | 0.456 | 0.412 | 0.437 | 0.288 | 0.256 | 0.91 | 0.908 | 0.897 | 0.87 | 0.912 | 0.421 | 0.299 | 0.431 | 0.239
HCC-366 | 1.01 | 1.03 | 0.986 | 0.863 | 0.118 | 0.125 | 0.12 | 0.098 | 0.0502 | 0.182 | 0.206 | 0.194 | 0.581 | 0.223 | 0.596 | 0.609 | 0.603 | 0.528
HCC-827 | 1.06 | 0.99 | 0.793 | 0.873 | 0.445 | 0.409 | 0.412 | 0.385 | 0.401 | 0.278 | 0.26 | 0.308 | 0.269 | 0.265 | 0.322 | 0.281 | 0.309 | 0.256
HOP-62 | 1.12 | 1.16 | 1.03 | 0.951 | 0.372 | 0.302 | 0.372 | 0.287 | 0.263 | 0.298 | 0.345 | 0.28 | 0.289 | 0.269 | 0.635 | 0.658 | 0.656 | 0.496
IA-LM | 0.732 | 0.56 | 0.449 | 0.295 |  |  |  |  |  |  |  |  |  |  |  |  |  | 
LC-2-ad | 0.533 | 0.386 | 0.273 | 0.295 | 0.397 | 0.381 | 0.355 | 0.363 | 0.318 | 0.246 | 0.278 | 0.269 | 0.246 | 0.272 | 0.541 | 0.643 | 0.535 | 0.476
LCLC-103H |  |  |  |  | 0.51 | 0.425 | 0.457 | 0.481 | 0.373 | 0.453 | 0.46 | 0.51 | 0.43 | 0.477 | 0.383 | 0.582 | 0.472 | 0.442
NCI-H358 |  |  |  |  | 0.109 | 0.0897 | 0.104 | 0.101 | 0.091 | 0.153 | 0.181 | 0.167 | 0.173 | 0.145 | 0.157 | 0.175 | 0.151 | 0.141
NCI-H522 |  |  |  |  | 0.534 | 0.619 | 0.492 | 0.514 | 0.446 | 0.975 | 0.986 | 0.979 | 0.824 | 0.828 | 0.821 | 0.93 | 0.83 | 0.805
NCI-H650 |  |  |  |  | 0.732 | 0.725 | 0.67 | 0.684 | 0.66 | 0.893 | 0.939 | 0.893 | 0.703 | 0.867 | 0.467 | 0.422 | 0.451 | 0.356
NCI-H661 |  |  |  |  | 0.351 | 0.347 | 0.361 | 0.358 | 0.355 | 0.956 | 0.9 | 0.94 | 0.942 | 0.955 | 0.976 | 0.86 | 0.828 | 0.627
NCI-H727 | 0.399 | 0.349 | 0.339 | 0.219 | 0.673 | 0.636 | 0.568 | 0.566 | 0.585 |  |  |  |  |  | 0.322 | 0.273 | 0.309 | 0.23
NCI-H1299 | 1.08 | 1.03 | 0.994 | 0.825 |  |  |  |  |  |  |  |  |  |  |  |  |  | 
NCI-H1563 |  |  |  |  |  |  |  |  |  | 0.762 | 0.764 | 0.734 | 0.705 | 0.768 | 0.452 | 0.464 | 0.449 | 0.447
NCI-H1623 |  |  |  |  | 0.456 | 0.394 | 0.403 | 0.426 | 0.393 |  |  |  |  |  | 0.542 | 0.515 | 0.516 | 0.504
NCI-H1648 |  |  |  |  | 0.599 | 0.462 | 0.346 | 0.33 | 0.389 | 0.626 | 0.629 | 0.814 | 0.891 | 1.07 |  |  |  | 
NCI-H1703 | 1.06 | 1.11 | 0.933 | 0.719 |  |  |  |  |  |  |  |  |  |  |  |  |  | 
NCI-H1792 | 0.747 | 0.638 | 0.561 | 0.41 |  |  |  |  |  | 0.912 | 1.11 |  | 0.698 | 0.556 | 0.73 | 0.71 | 0.631 | 0.503
NCI-H2342 |  |  |  |  | 0.454 | 0.499 | 0.453 | 0.418 | 0.421 | 0.869 | 0.749 | 0.699 | 0.738 | 0.568 | 0.29 | 0.292 | 0.354 | 0.285
SW 900 |  |  |  |  | 0.535 | 0.56 | 0.528 | 0.552 | 0.428 | 0.475 | 0.443 | 0.454 | 0.472 | 0.469 | 0.662 | 0.784 | 0.702 | 0.426
